Measured values from US20100196321A1, “COMPOUNDS” (GLAXOSMITHKLINE LLC, priority 2009, published 2010).

What was measured:
[1] = test system: HCV mutant replicon A156V; test: HCV PI Transient Replicon Assay, A156V; type: cell-based; details: Hepatitis C virus, 72 h, read-out: A156V EC50 values (nM)
Description: (§1) A model system for HCV RNA replication is a cell based assay using subgenomic or genomic HCV replicons containing HCV genes and possibly a selectable and/or screenable marker. […] The HCV PI transient replicons assay was derived from two publications ([…]; J Virol 75, 12047, 2001). In this assay, the target cells were “ET Cured cells”, a cell line generated by treating ET replicons cells (RebliKon) with Interferon a for several passages until the HCV genome was cleared. Other modifications to the published protocol included 1) cells were transfected in PBS and 2) were treated for 72 hours with compounds. Data from dose responses was analyzed using BioAssay. EC50 values were generated by plotting percent inhibition against compound concentration. The various HCV mutant replicons were generated by standard molecular biology techniques and confirmed by sequencing.

[2] = test system: HCV mutant replicon A156T; test: HCV PI Transient Replicon Assay, A156T; type: cell-based; details: Hepatitis C virus, 72 h, read-out: A156T EC50 values (nM)
Description: as §1

[3] = test system: HCV mutant replicon R155K; test: HCV PI Transient Replicon Assay, R155K; type: cell-based; details: Hepatitis C virus, 72 h, read-out: R155K EC50 values (nM)
Description: as §1

[4] = test system: HCV mutant replicon D168V; test: HCV PI Transient Replicon Assay, D168V; type: cell-based; details: Hepatitis C virus, 72 h, read-out: D168V EC50 values (nM)
Description: as §1

[5] = test system: HCV mutant replicon D168A; test: HCV PI Transient Replicon Assay, D168A; type: cell-based; details: Hepatitis C virus, 72 h, read-out: D168A EC50 values (nM)
Description: as §1

HCV replicon wt = test: HCV PI Transient Replicon Assay, wt; type: cell-based; details: Hepatitis C virus; ET Cured cells, 72 hours
Description: as §1

[6] = test system: HCV mutant replicon A156S; test: HCV PI Transient Replicon Assay, A156S; type: cell-based; details: Hepatitis C virus, 72 h, read-out: A156S EC50 values (nM)
Description: as §1

[7] = test system: sub-genomic HCV NS3-NS5B replicon of genotype 1a in Huh-7 cells; test: Replicon Luciferase Cell Based Assay, genotype 1a; design: species or system HCV genotype 1a; details: Hepatitis C virus, Huh-7, 48 hours
Procedure, shortened: (§2)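 5,000 luciferase-replicon cells per well in DMEM with 5% FCS were exposed to 1:3 compound dilutions for 48 h at 37 °C. Firefly luciferase (Steady-Glo) was read, with CellTiter-Glo on duplicate plates for cytotoxicity; background-subtracted signal as % of compound-free control gave IC50.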

[8] = test system: sub-genomic HCV NS3-NS5B replicon of genotype 1b (ET subline) in Huh-7 cells; test: Replicon Luciferase Cell Based Assay, genotype 1b; design: species or system HCV genotype 1b; details: Hepatitis C virus, Huh-7, 48 h, read-out: Genotype 1b (IC50 μM)
Procedure, shortened: as §2

[9] = test system: HCV protease-resistant mutants; test: HCV PI Transient Replicon Assay, profile over resistant mutants; type: cell-based; details: e.g. A1566S, A156T, R155K, others
Description: as §1
Compounds of the invention are thought to be active against HCV protease-resistant mutants. […] EC50 values (nM) are shown below in Table 3.

[10] = target: HCV Genotype 1a NS3-4A Protease Domain (Hepatitis C virus genotype 1a, UniProt P27958, T1100M/T1173A); test: Hepatitis C NS3 Protease FRET Assay (RET-S1); type: biochemical
Description: Hepatitis C NS3 Protease FRET Assay (RET-S1) Using the HCV Genotype 1a NS3-4A Protease Domain
Compounds were tested as inhibitors of HCV NS3-4A protease domain in 10 μl reactions which contained 50 mM HEPES pH 7.5, 20% sucrose, 0.05% NP40, 5 mM DTT, 1 μM 4A peptide ([…] that served as a cofactor and activated the enzyme in the assay) (prepared by standard synthetic methods), 5 μM RET S1 substrate (Ac-DED(EDANS)EEAbu ψ[COO] ASK(DABCYL)) and 1 nM NS3 protease domain. The RET S1 substrate (Ac-Asp-Glu-Asp(EDANS)-Glu-Glu-Abu-ψ-[COO]-Ala-Ser-Lys(DABCYL)-NH2) was purchased from Anaspec, Inc. (Taliani et. al, 1996, Anal Biochem). “ψ-[COO]” refers to the location of the ester bond within the molecule
Cleavage of the substrate, which is based on the natural NS4A/NS4B junction (DEMEECASHL), was monitored by measuring the increase in fluorescence with 355 nm excitation/495 nm emission in a Molecular Devices SpectraMax Gemini plate reader. Compounds were dissolved in DMSO and tested at 10 μM in duplicate or in dose response curves with usually 10 μM top concentration and 3-fold dilutions. The maximum level of DMSO was 5%. The standard compound in the assay was the compound BILN-2061 (Lamarre at al., (2003) Nature, 426, 186-189).

Work on `CC(C)(C)OC(=O)N[C@H]1CCCCC/C=C\[C@@H]2C[C@@]2(C(=O)NS(=O)(=O)C2CC2)NC(=O)[C@@H]2C[C@@H](OC(=O)N3Cc4cccc(F)c4C3)CN2C1=O` [ITMN-191] yielded an EC50 [1] of 11.9 nM, an EC50 [2] of 6.46 nM and an EC50 [3] of 109 nM. For the same compound, the EC50 [4] was 33.1 nM, the EC50 [5] was 54.4 nM and the EC50 (HCV replicon wt) was 0.07 nM. It also gave an EC50 [6] of 1.64 nM.

Compound `COc1ccc2c(O[C@@H]3C[C@H]4C(=O)N[C@]5(C(=O)NS(=O)(=O)C6CC6)C[C@H]5/C=C\CCCCN(C)C(=O)[C@@H]4C3)cc(-c3nc(C(C)C)cs3)nc2c1C` [TMC-435350] has an EC50 [1] of 36.3 nM, an EC50 [2] of 57.5 nM and an EC50 [3] of 58.9 nM. For the same compound, the EC50 [4] was 43.7 nM, the EC50 [5] was 161 nM and the EC50 (HCV replicon wt) was 0.87 nM. The EC50 [6] was 0.28 nM.

For `COc1ccc2c(O[C@@H]3C[C@H]4C(=O)N[C@]5(C(=O)NS(=O)(=O)C6CC6)C[C@H]5/C=C\CCCCC[C@H](NC(=O)N5CCC(c6ccccc6)CC5)C(=O)N4C3)cc(-c3nc(C(C)C)cs3)nc2c1C` [Example 20, (2R,6S,13aS,14aR,16aS)-N-(cyclopropylsulfonyl)-2-{[8-methyl-2-[4-(1-methylethyl)-1,3-thiazol-2-yl]-7-(methyloxy)-4-quinolinyl]oxy}-5,16-dioxo-6-{[(4-phenyl-1-piperidinyl)carbonyl]amino}-1,2,3,6,7,8,9,10,11,13a,14,15,16,16a-tetradecahydrocyclopropa[e]pyrrolo[1,2-a][1,4]diazacyclopentadecine-14a(5H)-carboxamide], the IC50 [7] was < 0.01 µM and the IC50 [8] was < 0.01 µM.

With `COc1ccc2c(O[C@@H]3C[C@H]4C(=O)N[C@]5(C(=O)NS(=O)(=O)C6CC6)C[C@H]5/C=C\CCCCC[C@H](NC(=O)N5CCCCC5)C(=O)N4C3)cc(-c3nc(C(C)C)cs3)nc2c1C` [Example 16, (2R,6S,13aS,14aR,16aS)-N-(cyclopropylsulfonyl)-2-{[8-methyl-2-[4-(1-methylethyl)-1,3-thiazol-2-yl]-7-(methyloxy)-4-quinolinyl]oxy}-5,16-dioxo-6-[(1-piperidinylcarbonyl)amino]-1,2,3,6,7,8,9,10,11,13a,14,15,16,16a-tetradecahydrocyclopropa[e]pyrrolo[1,2-a][1,4]diazacyclopentadecine-14a(5H)-carboxamide] the “profile against resistant mutants compared with other HCV PI inhibitors ITMN-191 and TMC-435350” value [9] was “improved profile”, the IC50 [7] was < 0.01 µM and the EC50 [1] was 7.17 nM. The EC50 [2] was 1.95 nM, the IC50 [8] was < 0.01 µM and the EC50 [3] was 6.93 nM. The EC50 [4] was 80.6 nM, the EC50 [5] was 24.8 nM and the EC50 (HCV replicon wt) was 0.04 nM. For the same compound, the IC50 [10] was 5 nM and the EC50 [6] was 0.07 nM.

For `COc1ccc2c(O[C@@H]3C[C@H]4C(=O)N[C@]5(C(=O)NS(=O)(=O)C6CC6)C[C@H]5/C=C\CCCCC[C@H](NC(=O)N5CC(F)(F)C5)C(=O)N4C3)cc(-c3nc(C(C)C)cs3)nc2c1C` [Example 35, (2R,6S,13aS,14aR,16aS,Z)-N-(cyclopropylsulfonyl)-6-(3,3-difluoroazetidine-1-carboxamido)-2-(2-(4-isopropylthiazol-2-yl)-7-methoxy-8-methylquinolin-4-yloxy)-5,16-dioxo-1,2,3,5,6,7,8,9,10,11,13a,14,14a,15,16,16a-hexadecahydrocyclopropa[e]pyrrolo[1,2-a][1,4]diazacyclopentadecine-14a-carboxamide], the IC50 [7] was < 0.01 µM and the IC50 [8] was < 0.01 µM.

For `C=C1CCN(C(=O)N[C@H]2CCCCC/C=C\[C@@H]3C[C@@]3(C(=O)NS(=O)(=O)C3CC3)NC(=O)[C@@H]3C[C@@H](Oc4cc(-c5nc(C6CC6)cs5)nc5c(Cl)c(OC)ccc45)CN3C2=O)CC1` [Example 27, (2R,6S,13aS,14aR,16aS,Z)-2-(8-chloro-2(4-cyclopropylthiazol-2-yl)-7-methoxyquinolin-4-yloxy)-N-(cyclopropylsulfonyl)-6-(4-methylenepiperidine-1-carboxamido)-5,16-dioxo-1,2,3,5,6,7,8,9,10,11,13a,14,14a,15,16,16a-hexadecahydrocyclopropa[e]pyrrolo[1,2-a][1,4]diazacyclopentadecine-14a-carboxamide], the IC50 [7] was < 0.01 µM and the IC50 [8] was < 0.01 µM.
